This is an account of results in patent US7357913B2, “Methods for detecting, prognosing, or monitoring a disorder by comparing relative flux rates of two or more biological molecules in vivo” (The Regents of the University of California, priority 2003, dated 2008).

Entries after “also recorded” stand apart in the source; their conditions may differ.

Data set [1] concerns EMT7 mouse mammary carcinoma cells. The data set can be described thus: Tumor cell proliferation in EMT7 tumor-bearing mice, Gem and HU. It counts as in vivo. The conditions noted are these: female balb/C nu/nu mice, EMT7 tumors; Gem 125 mg/kg every other day, HU 500 mg/kg daily; 5 days.
Procedure: Female balb/C nu/nu mice were implanted subcutaneously with approximately 106 EMT7 mouse mammary carcinoma cells in matrigel. Tumors were allowed to reach ca.1500 mm^3 in size. Mice were labeled with ^2H2O and treated with either 125mg/kg gemzar (gemcitabine or Gem) or 500 mg/kg hydroxyurea (HU). Gem was administered every other day; HU daily; and control saline daily. At the end of 5 days tumors were removed and cell proliferation was measured as described, supra.
Data set [2] in a line: Body water 2H2O enrichment in rats. The class given is in vivo, rat. The conditions noted are these: rats maintained on 4% 2H2O in drinking water after i.p. priming bolus. The procedure: ^2H2O labeling protocols in rodents consisted of an initial intraperitoneal priming bolus to 2.0-2.5% body water enrichment. The priming dose of ^2H2O (100%) was given to the rats (e.g., for a 225 g rat, 2% of 135 ml, or 2.7 ml, given in divided doses 1 hour apart) based on estimated 60% body weight as water, followed by administration of 4% ^2H2O in the drinking water. The 4% enrichment of ^2H2O in drinking water was chosen as a convenient dose that produces sufficient enrichments in biosynthetic products of interest and has no known toxicities. ^2H2O (70% and 100%) was purchased commercially from Cambridge Isotopes (Andover, Mass.). Drinking was ad-libitum. Rats were sacrificed by CO2 asphyxiation.
Body water ^2H2O enrichments were measured serially. The steady state body ^2H2O enrichments attained in rats maintained on 4% ^2H2O in drinking water were approximately 3.0% and were stable over time in individual animals.

The conditions of data set [3]: human, in vivo, po. The protocol:
(§1) The ^2H2O was administered orally. The initial priming dose was carried out in the General Clinical Research Center (GCRC) of SF General Hospital. Subjects received a total of 350-400 mL of ^2H2O in the GCRC, given as divided doses over the course of 18-21 hours (70 mL of 70% ^2H2O, given every 3-4 hours), to achieve about 1.0% enrichment in the body water pool. The ^2H2O was purchased from-Isotec, Inc. (Miamisburgh, Ohio) and dispensed in sterile containers. Subjects then took 50 mL of 70% ^2H2O three times a day for 5 days, then 35-50 mL twice-a-day for the remainder of the 8-10 week labeling protocol. This protocol achieves near-plateau body ^2H2O enrichments (1.5-2.0%, see below) within 5-7 days in most subjects and was well-tolerated. Subjects received the ^2H2O as individual aliquots (35-50 mL of 70% ^2H2O) in plastic vials, which were stored in the refrigerator.
^2H2O enrichments in body water were measured from plasma or urine. A 15-20 μL sample was reacted in an evacuated GC vial with calcium carbide to produce acetylene. The acetylene gas was then transferred with a syringe and injected into an evacuated GC vial containing 10% bromine in carbon tetrachloride and incubated at room temperature for 2 hours to produce tetrabromoethane. […] The tetrabromoethane, containing hydrogen atoms from body H2O, was then analyzed by GC/MS.

A short description of data set [4]: Tolerability of oral 2H2O labeling protocol in human subjects. It counts as in vivo. The conditions noted are these: 8-10 week labeling protocol. The protocol: as §1
Data set [5] can be described thus: Food intake and body weight under 2H2O treatment in mice. It counts as in vivo, mouse. The conditions noted are these: ca. 2% body water enrichment then 4% 2H2O drinking water, 21 days. The protocol: Mice were injected with ^2H2O (deuterated water) at a dose to achieve approximately 2% enrichment in the body water pool. The normal drinking water was then replaced with water enriched to 4% ^2H2O. ^2H2O treatment had no impact on food intake or body weight. Twenty-one days following the start of ^2H2O administration, mice were fasted for four hours, anesthetized with isoflurane and exsanguinated via heart puncture. When possible, urine was collected at the same time.

In another data set the test system is total liver cell. The experiment in a line: Total liver cell proliferation (DNA synthesis) after CCl4. The class given is in vivo, mouse.
The test system of the next data set is liver collagen. The experiment in a line: Liver collagen synthesis (2H into hydroxyproline) after CCl4. The class given is in vivo, mouse. The procedure: Liver collagen synthesis was measured concurrently (i.e., simultaneously) with de novo DNA synthesis in the same CCl4-treated SJV mice. Collagen was purified from 10 mg of fresh total liver homogenate as follows: using a Polytron homogenizer, collagen was isolated from soft tissue by homogenizing in 0.5 mL 100 mM NaOH. Under these conditions, collagen remains insoluble while most other proteins are readily dissolved. After centrifugation at 7,000 ×g for 10 minutes at 4° C., the supernatant was discarded. The pellet was washed briefly with 2 mL H2O and solubilized in reducing Laemmli sample buffer (Bio-Rad, Hercules, Calif.) after boiling for 3 minutes. The dissolved material was size-fractionated by SDS-PAGE. […]
Acetone precipitated total liver protein and PVDF-bound collagen were hydrolyzed by treating with 6 N HCl, 16 hours at 110° C. […] Hydroxyproline was analyzed on a DB225 GC column, starting temp 100° C. increasing 10° C./min to 220° C. with selected ion monitoring of m/z 352,353.
Hydroxyproline is a molecule of interest and is measured as OH-proline, the molecule being essentially unique to collagen. Because of this fact, total liver protein hydrolysate can be derivatized and the ^2H enrichment of hydroxyproline determined by GC/MS as described, supra. […]

The test system of data set [6] is non-small cell lung carcinoma cells (SW1573). The data set can be described thus: Tumor cell proliferation (de novo DNA synthesis, 2H2O labeling) in SW1573 xenograft mice, gemcitabine. It counts as in vivo, human. The following applies: male balb/C nu/nu mice, SW1573 s.c. in matrigel, increasing doses every other day, 5 days. The protocol: (§2) Male balb/C nu/nu mice were implanted subcutaneously with non-small cell lung carcinoma cells (SW1573) cells in matrigel. Mice were labeled with 2H2O and treated with increasing doses of gemcitabine (Gem), administered every other day (as shown in FIG. 9). After 5 days, tumor, colon and bone marrow were removed using techniques well known in the art, and as described, supra. Cell proliferation was measured as described, supra. […] De novo DNA synthesis from all three cell types was measured concurrently using the methods of the present invention. Briefly, heavy water (^2H2O) is administered to living organisms (8% ^2H2O in drinking water). DNA is isolated, hydrolyzed to free dNs, and deuterium incorporation into the deoxyribose (dR) moiety of purine and pyrimidine dNs is measured by gas chromatography/mass spectrometry (GC/MS) as described, supra.

The test system of the next data set is bone marrow cells. The data set can be described thus: Bone marrow cell proliferation (de novo DNA synthesis, 2H2O labeling), gemcitabine study. The class given is in vivo, mouse. The conditions noted are these: male balb/C nu/nu mice with SW1573, increasing doses every other day, 5 days. The protocol: as §2
In another data set the test system is colonocytes. The data set can be described thus: Colonocyte proliferation (de novo DNA synthesis, 2H2O labeling), gemcitabine study. The class given is in vivo, mouse. The conditions noted are these: male balb/C nu/nu mice with SW1573; for colon cell (colonocyte) proliferation: increasing doses every other day, 5 days. The procedure: as §2
A further data set relates to adipose tissue. The data set can be described thus: Adipose tissue dynamics (TG synthesis, de novo lipogenesis, adipocyte proliferation) in leptin treated ob/ob mice. It counts as in vivo, mouse. The procedure:
Four week old, female, C57/b16j mice (Jackson Labs Bar Harbor, […].) were divided into four groups: C57/b16j^+/? controls (con), ad libitum fed C57/b16j^lep-/lep-(ob/ob), leptin treated ob/ob (ob-lep) and food restricted ob/ob (ob-r). All mice were housed individually in hanging wire cages and given free access to water. The light cycle was on from noon to midnight and mean temperature was 73° F. Diets were from a purified formula with 1 g “dustless” pellets used for the ad lib fed animals and 45 mg for the food restricted ob/ob mice (Bio Serv, Frenchtown, N.J.). Mice were given 3 days to acclimate to the environment, during which time some weight loss was observed. After the acclimation period, food restriction or leptin treatment was begun and food intake and body weights were measured periodically. […]
The percent of TG newly synthesized during the labeling period was calculated based on the precursor-product relationship, as described supra, using body water enrichment to estimate the maximal or asymptotic enrichment in TG-glycerol. The relationship between body water and the maximal TG-glycerol enrichment has been determined through combinatorial analysis (mass isotopomer distribution analysis MIDA) and by measurement of 100% replaced TG pools after long-term ^2H2O labeling. […] The fraction of TG which is newly synthesized is then calculated as: Fractional synthesis (f)=EM1/A1^∞. […]

Procedure for total liver cell: SVJ mice were injected 2× weekly with 1.0 ml/kg or 0.25 mL/kg of CCl4 or vehicle for up to 4 weeks Cell proliferation was measured at 2, 7, 14, 21 and 28 days of ^2H2O administration and CCl4 treatment using the methods of the present invention as described, supra.

On to `NC(=O)NO` [HU, hydroxyurea], for which, in [1], the “tumor cell proliferation relative to saline control” value is “caused reductions; also recorded: decreased”.

For the molecule `[2H]O[2H]` [^2H2O], the “steady state body 2H2O enrichment” value in data set [2] is “approximately 3.0%”. In data set [3], the “near-plateau body 2H2O enrichment” value was 1.5-2.0% and the “time to near-plateau body 2H2O enrichment” value lay in the range of 5 to 7 days. Moreover, in [4], the “tolerability of 2H2O protocol” value was “well-tolerated”. Also, the “impact on food intake or body weight” value in data set [5] is listed as “no impact”.

With `ClC(Cl)(Cl)Cl` [CCl4, carbon tetrachloride], the “new liver cells present” value in the data set with total liver cell (after 4 weeks of repeated CCl4 dosing) is reported as approximately 100%. The “total liver cell proliferation relative to vehicle control” value in the data set with total liver cell (mice injected 2x weekly, both doses (1.0 ml/kg and 0.25 mL/kg), up to 4 weeks) is reported as “significantly increased; also recorded: significant cell proliferation occurred at both doses”. Moreover, in the data set on liver collagen (high dose of CCl4 (1.0 ml/kg 2x weekly)), the “liver collagen synthesis relative to vehicle control, high dose” value is “significant collagen synthesis occurred only at the highest dose; also recorded: increased”. Further, the “liver collagen synthesis relative to vehicle control, low dose” value with liver collagen (low dose of CCl4 (0.25 mL/kg 2x weekly)) was “no effect”.

Regarding `Nc1ccn([C@@H]2O[C@H](CO)[C@@H](O)C2(F)F)c(=O)n1` [Gem, gemcitabine], the tumor cell proliferation entry is “inhibits” in [6]; “inhibited in tumor and bone marrow cells in a dose-response manner” in data set [6] (listed as gemcitabine). Also, the “bone marrow cell proliferation” value with bone marrow cells was “inhibits”; in the data set with bone marrow cells (listed as gemcitabine), “inhibited in tumor and bone marrow cells in a dose-response manner”. The “colon cell (colonocyte) proliferation” value in the data set on colonocytes is reported as “relatively little effect”; in the data set on colonocytes (listed as gemcitabine), “little inhibition”. In addition, in the data set with colonocytes (lower experimental doses), the “colonocyte proliferation at the lower experimental doses” value is recorded as “may have a stimulatory effect”. For the same molecule, in [1], the “tumor cell proliferation relative to saline control” value was “caused reductions; also recorded: decreased”.

B1: leptin: murine leptin (Amgen) infused subcutaneously by osmotic pump (protein, UniProt P41160 22-167, looked up)
Leptin: VPIQKVQDDTKTLIKTIVTRINDISHTQSVSAKQRVTGLDFIPGLHPILSLSKMDQTLAVYQQVLTSLPSQNVLQIANDLENLRDLLHLLAFSKSCSLPQTSGLQKPESLDGVLEASLYSTEVVALSRLQGSLQDILQQLDVSPEC
Regarding B1, the “TG retained (body fat balance)” value with adipose tissue (leptin treated ob/ob mice) is given as “body fat was lost”. Also, the “effect on de novo lipogenesis, adipogenesis and triglyceride synthesis in adipose tissue” value with adipose tissue (ob/ob mice, murine leptin 2 μg/day s.c. osmotic pump, 21 days 2H2O) was “influenced all three pathways similarly”.
